In patent US20060069108A1, “Use of (R)-penciclovir triphosphate for the manufacture of a medicament for the treatment of viral diseases” (priority 1995, published 2006):

Experiments:
[1] = target: HIV-1 reverse transcriptase (Human immunodeficiency virus type 1 group M subtype B, UniProt P04585); test: Inhibition of HIV-1 reverse transcriptase; assay type: biochemical, human immunodeficiency virus type 1 (HIV-1)
HBV DNA polymerases = HBV DNA polymerases (Hepatitis B virus genotype D subtype ayw, UniProt P03156); test: Inhibition of HBV DNA polymerases; assay type: biochemical; details: activity compared with the (S)-enantiomer
HBV DNA polymerases, sequence (P03156 whole entry): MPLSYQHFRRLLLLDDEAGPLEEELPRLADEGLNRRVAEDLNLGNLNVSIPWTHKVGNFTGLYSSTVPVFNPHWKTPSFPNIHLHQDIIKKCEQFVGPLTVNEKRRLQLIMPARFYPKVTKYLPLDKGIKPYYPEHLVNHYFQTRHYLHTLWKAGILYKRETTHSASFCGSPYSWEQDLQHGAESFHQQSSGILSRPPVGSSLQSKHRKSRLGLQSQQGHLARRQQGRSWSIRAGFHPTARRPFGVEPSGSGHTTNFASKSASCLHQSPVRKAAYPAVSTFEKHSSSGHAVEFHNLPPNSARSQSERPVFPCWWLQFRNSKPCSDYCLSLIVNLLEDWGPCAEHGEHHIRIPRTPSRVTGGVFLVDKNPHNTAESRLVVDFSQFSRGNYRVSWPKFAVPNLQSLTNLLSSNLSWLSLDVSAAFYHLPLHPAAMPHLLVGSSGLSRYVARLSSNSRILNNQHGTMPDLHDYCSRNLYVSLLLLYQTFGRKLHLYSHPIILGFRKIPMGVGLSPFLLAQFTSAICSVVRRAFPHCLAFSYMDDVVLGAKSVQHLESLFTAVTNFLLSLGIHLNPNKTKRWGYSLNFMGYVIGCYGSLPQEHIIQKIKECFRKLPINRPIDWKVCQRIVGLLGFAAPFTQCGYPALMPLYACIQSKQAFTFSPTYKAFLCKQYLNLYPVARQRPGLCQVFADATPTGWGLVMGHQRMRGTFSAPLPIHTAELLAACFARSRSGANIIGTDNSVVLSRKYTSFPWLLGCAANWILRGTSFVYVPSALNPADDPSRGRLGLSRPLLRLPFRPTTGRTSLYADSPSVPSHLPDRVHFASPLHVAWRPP

| Molecule | inhibition of RNA-directed DNA polymerase (reverse transcriptase) activity of HIV-1 [1] | inhibition of HBV DNA polymerases (HBV DNA polymerases) | inhibition of HIV-1 reverse transcriptase ([1]; activity compared with the (S)-enantiomer) |
| --- | --- | --- | --- |
| penciclovir triphosphate [triphosphate derivative of penciclovir, reference compound] | inhibits |  |  |
| Nc1nc2c(ncn2CC[C@H](CO)COP(=O)(O)OP(=O)(O)OP(=O)(O)O)c(=O)[nH]1 (single isomer, unassigned) [(R)-enantiomer of PCV-TP] |  | more active than the (S)-enantiomer | more active than the (S)-enantiomer |
